{"source": "patent US8138145B2", "about": "“Hybrid oligomers, their preparation process and pharmaceutical compositions containing them” (Centre National de la Recherche Scientifique (SNRS), priority 2005, dated 2012)", "type_in_all_cases": "cell-based", "key": {"[1]": {"test_system": "Pseudomonas Aeruginosa ATCC 27853", "conditions": "Mueller-Hinton broth, 37° C., 18 to 20 hours; for Minimal bactericidal concentration, Pseudomonas Aeruginosa ATCC 27853: plate counting on sheep blood agar", "description": "(§1) Four strains were selected: Escherichia Coli ATCC 25922, Staphylococcus Aureus ATCC 25923, Pseudomonas Aeruginosa ATCC 27853 and a clinical isolated methicillin resistant Staphylococcus Aureus strain. Antibacterial activity of the molecules was tested by dilution method in Mueller-Hinton broth in order to determine the minimal inhibitory concentration (MIC) and the minimal bactericidal concentration (MBC). At least two independent assays were done. Stock solutions were obtained by solubilizing molecule powders in distilled water at concentration of 2.56 mg/mL and serial 2-fold diluted solutions were prepared. Bacterial inoculum was standardized by using direct suspensions of colonies from overnight growth in saline adjusted to a turbidity matching the 0.5 McFarland standard, and diluted to obtain a density comprised between 10^5 CFU/mL and 10^7 CFU/mL. Tubes containing 900 μL of inoculum with 100 μL of molecules solutions were incubated in air at 37° C. for 18 to 20 hours. Purity and inoculum density as well as percentage of viable bacteria in limpid tubes were checked by plate counting on sheep blood agar. Broth not containing any molecule solution was inoculated with each selected bacterial strain as a control for organism viability (growth control). The susceptibility of S. Aureus strains against vancomycin was used as an internal control as well as the activity of melittin."}, "[2]": {"test_system": "Escherichia Coli ATCC 25922", "conditions": "Mueller-Hinton broth, 37° C., 18 to 20 hours; for Minimal bactericidal concentration, Escherichia Coli ATCC 25922: plate counting on sheep blood agar", "description": "as §1"}, "[3]": {"test_system": "Staphylococcus Aureus ATCC 25923", "experiment": "microbe, parasite or virus in culture", "conditions": "for Minimal inhibitory concentration, Staphylococcus Aureus ATCC / Minimal bactericidal concentration, Staphylococcus Aureus ATCC: Mueller-Hinton broth, 37° C., 18 to 20 hours; for Minimal bactericidal concentration, Staphylococcus Aureus ATCC: plate counting on sheep blood agar", "description": "as §1"}, "[4]": {"test_system": "clinical isolated methicillin resistant Staphylococcus Aureus strain", "experiment": "microbe, parasite or virus in culture", "conditions": "Mueller-Hinton broth, 37° C., 18 to 20 hours; for Minimal bactericidal concentration, clinical isolated methicillin resistant Staphylococcus Aureus strain: plate counting on sheep blood agar", "description": "as §1"}}, "data": [{"smiles": "CC(C)NC(=O)N[C@H](CNC(=O)N[C@@H](CCCCN)CNC(=O)N[C@H](CNC(=O)N[C@H](CNC(=O)N[C@@H](CCCCN)CNC(=O)N[C@H](CNC(=O)N[C@@H](CCCCN)CNC(N)=O)Cc1c[nH]c2ccccc12)C(C)C)Cc1c[nH]c2ccccc12)C(C)C", "note": "[Mol-8]", "values": [{"measurement": "Minimal inhibitory concentration, Pseudomonas Aeruginosa ATCC 27853", "setting": "[1]", "value": 64, "unit": "µg/mL"}, {"measurement": "Minimal bactericidal concentration, Pseudomonas Aeruginosa ATCC 27853", "setting": "[1]", "value": ">256", "unit": "µg/mL"}, {"measurement": "Minimal inhibitory concentration, Escherichia Coli ATCC 25922", "setting": "[2]", "value": 32, "unit": "µg/mL"}, {"measurement": "Minimal bactericidal concentration, Escherichia Coli ATCC 25922", "setting": "[2]", "value": 256, "unit": "µg/mL"}, {"measurement": "Minimal inhibitory concentration, Staphylococcus Aureus ATCC", "setting": "[3]", "value": 32, "unit": "µg/mL"}, {"measurement": "Minimal bactericidal concentration, Staphylococcus Aureus ATCC", "setting": "[3]", "value": 32, "unit": "µg/mL"}]}, {"smiles": "CC(C)NC(=O)N[C@H](CNC(=O)N[C@@H](CCCCN)CNC(=O)N[C@H](CNC(=O)N[C@H](CNC(=O)N[C@@H](CCCCN)CNC(=O)N[C@H](CNC(=O)N[C@@H](CCCCN)CNC(=O)N[C@H](CCC(N)=O)C(C)C)Cc1c[nH]c2ccccc12)C(C)C)Cc1c[nH]c2ccccc12)C(C)C", "note": "[Mol-4]", "values": [{"measurement": "Minimal inhibitory concentration, Pseudomonas Aeruginosa ATCC 27853", "setting": "[1]", "value": 128, "unit": "µg/mL"}, {"measurement": "Minimal bactericidal concentration, Pseudomonas Aeruginosa ATCC 27853", "setting": "[1]", "value": 256, "unit": "µg/mL"}, {"measurement": "Minimal inhibitory concentration, Escherichia Coli ATCC 25922", "setting": "[2]", "value": 32, "unit": "µg/mL"}, {"measurement": "Minimal bactericidal concentration, Escherichia Coli ATCC 25922", "setting": "[2]", "value": 64, "unit": "µg/mL"}, {"measurement": "Minimal inhibitory concentration, clinical isolated methicillin resistant Staphylococcus Aureus strain", "setting": "[4]", "value": 16, "unit": "µg/mL"}, {"measurement": "Minimal bactericidal concentration, clinical isolated methicillin resistant Staphylococcus Aureus strain", "setting": "[4]", "value": 64, "unit": "µg/mL"}, {"measurement": "Minimal inhibitory concentration, Staphylococcus Aureus ATCC", "setting": "[3]", "value": 8, "unit": "µg/mL"}, {"measurement": "Minimal bactericidal concentration, Staphylococcus Aureus ATCC", "setting": "[3]", "value": "<16", "unit": "µg/mL"}]}, {"smiles": "CN[C@H](CC(C)C)C(=O)N[C@H]1C(=O)N[C@@H](CC(N)=O)C(=O)N[C@H]2C(=O)N[C@H]3C(=O)N[C@H](C(=O)N[C@H](C(=O)O)c4cc(O)cc(O)c4-c4cc3ccc4O)[C@H](O)c3ccc(c(Cl)c3)Oc3cc2cc(c3O[C@@H]2O[C@H](CO)[C@@H](O)[C@H](O)[C@H]2O[C@H]2C[C@](C)(N)[C@H](O)[C@H](C)O2)Oc2ccc(cc2Cl)[C@H]1O", "note": "[vancomycin, reference compound]", "values": [{"measurement": "MIC", "setting": "[4]; Staphylococcus aureus, read-out: Minimal inhibitory concentration, clinical isolated methicillin resistant Staphylococcus Aureus strain", "value": 1, "unit": "µg/mL"}, {"measurement": "MIC", "setting": "[3]; Staphylococcus aureus, ATCC25923, read-out: Minimal inhibitory concentration, Staphylococcus Aureus ATCC", "value": 2, "unit": "µg/mL"}]}, {"smiles": "CC[C@H](C)[C@H](NC(=O)CN)C(=O)NCC(=O)N[C@@H](C)C(=O)N[C@H](C(=O)N[C@@H](CC(C)C)C(=O)N[C@@H](CCCCN)C(=O)N[C@H](C(=O)N[C@@H](CC(C)C)C(=O)N[C@H](C(=O)N[C@H](C(=O)NCC(=O)N[C@@H](CC(C)C)C(=O)N1CCC[C@H]1C(=O)N[C@@H](C)C(=O)N[C@@H](CC(C)C)C(=O)N[C@H](C(=O)N[C@@H](CO)C(=O)N[C@@H](Cc1c[nH]c2ccccc12)C(=O)N[C@H](C(=O)N[C@@H](CCCCN)C(=O)N[C@@H](CCCNC(=N)N)C(=O)N[C@@H](CCCCN)C(=O)N[C@@H](CCCNC(=N)N)C(=O)N[C@@H](CCC(N)=O)C(=O)N[C@@H](CCC(N)=O)C(N)=O)[C@@H](C)CC)[C@@H](C)CC)[C@@H](C)O)[C@@H](C)O)C(C)C)C(C)C", "note": "[mellitin, reference compound]", "values": [{"measurement": "Minimal inhibitory concentration, Pseudomonas Aeruginosa ATCC 27853", "setting": "[1]", "value": ">256", "unit": "µg/mL"}, {"measurement": "Minimal bactericidal concentration, Pseudomonas Aeruginosa ATCC 27853", "setting": "[1]", "value": ">256", "unit": "µg/mL"}, {"measurement": "Minimal bactericidal concentration, Escherichia Coli ATCC 25922", "setting": "[2]", "value": ">256", "unit": "µg/mL"}, {"measurement": "Minimal inhibitory concentration, clinical isolated methicillin resistant Staphylococcus Aureus strain", "setting": "[4]", "value": 32, "unit": "µg/mL"}, {"measurement": "Minimal bactericidal concentration, clinical isolated methicillin resistant Staphylococcus Aureus strain", "setting": "[4]", "value": 128, "unit": "µg/mL"}]}]}
